Data: the supplement of paper PMC11208160
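Also: IS621 bridge recombinase in Escherichia coli cells against a fixed T5 target plasmid.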

Test: recombinant UMI read abundance after kanamycin selection (control-corrected) (log10(CPM+1)); higher = more efficient recombination; extreme values may be limits of the assay; sequences stand for … in AGTGCAGAGAAAATCGGCCAGTTTTCTCTGCCTGCAGTCCGCATGCCGTGGGACCCCTTGGGTTCTAACCTGTTGCCTAGATTTATGCAGCGGACTGCCTTTCTCCCAAAGTGATAAACCGG…AGGTTGGTTTCACT; site = the 11-nt donor
Summary of the method: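 In a pooled Escherichia coli screen for the IS621 bridge recombinase, donor and donor-binding-loop pairs were each placed with a 12-nt UMI on a plasmid bearing a promoterless kanamycin gene. This library was co-electroporated with a target plasmid encoding a fixed target and T7-inducible recombinase, and cells were plated either on IPTG (0.07 mM) plus kanamycin or without selection, in two replicates each. Recombinant UMIs were PCR-amplified across the donor–target junction and sequenced, and counts were converted to CPM, averaged over replicates, scaled by control-derived factors and reported as log10(CPM+1).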
With “CTCAACACATGGACCGGTTTTCCCGGTAATCCGTATTTGCT (site CTCCACACTAG)” the “recombinant UMI read abundance (log10)” value was 0.438. For “CTCAACACATGGACCGGTTTTCCCGGTAATCCGTATTTGCT (site CTCGACACTAG)”, the “recombinant UMI read abundance (log10)” value was 0.368. With “CTCAACACATGGACCGGTTTTCCCGGTAATCCGTATTTGCT (site CTCTACACTAG)” the “recombinant UMI read abundance (log10)” value was 1.23. With “CTCAAGCCATGGACCGGTTTTCCCGGTAATCCGTATTTGAG (site CTCAAGCCTCT)” the “recombinant UMI read abundance (log10)” value was 0. In the case of “CTCAGAACATGGACCGGTTTTCCCGGTAATCCGTATTTGCC (site CTCAGAACTGG)”, the “recombinant UMI read abundance (log10)” value is reported as 1.47. With “CTCAGACCATGGACCGGTTTTCCCGGTAATCCGTATTTGCG (site CTCAGACCTCG)” the “recombinant UMI read abundance (log10)” value was 0. For “CTCAGGACATGGACCGGTTTTCCCGGTAATCCGTATTTGAG (site CTCAGGACTCT)”, the “recombinant UMI read abundance (log10)” value was 0. In the case of “CTCCACACATGGACCGGTTTTCCCGGTAATCCGTATTTGCT (site CTCAACACTAG)”, the “recombinant UMI read abundance (log10)” value is reported as 0. With “CTCCACACATGGACCGGTTTTCCCGGTAATCCGTATTTGCT (site CTCCACACTAG)” the “recombinant UMI read abundance (log10)” value was 2.08. With “CTCCACACATGGACCGGTTTTCCCGGTAATCCGTATTTGCT (site CTCGACACTAG)” the “recombinant UMI read abundance (log10)” value was 0. For “CTCCACACATGGACCGGTTTTCCCGGTAATCCGTATTTGCT (site CTCTACACTAG)”, the “recombinant UMI read abundance (log10)” value was 1.54. For “CTCCACGCATGGACCGGTTTTCCCGGTAATCCGTATTTGTT (site CTCCACGCTAA)”, the “recombinant UMI read abundance (log10)” value was 1.57. With “CTCCCGACATGGACCGGTTTTCCCGGTAATCCGTATTTGGA (site CTCCCGACTTC)” the “recombinant UMI read abundance (log10)” value was 0.231. In the case of “CTCCCTACATGGACCGGTTTTCCCGGTAATCCGTATTTGTG (site CTCCCTACTCA)”, the “recombinant UMI read abundance (log10)” value is reported as 0.525. For “CTCCCTACATGGACCGGTTTTCCCGGTAATCCGTATTTGTG (site CTCCCTACTCC)”, the “recombinant UMI read abundance (log10)” value was 0.617. For “CTCCCTACATGGACCGGTTTTCCCGGTAATCCGTATTTGTG (site CTCCCTACTCG)”, the “recombinant UMI read abundance (log10)” value was 0.143. For “CTCCCTACATGGACCGGTTTTCCCGGTAATCCGTATTTGTG (site CTCCCTACTCT)”, the “recombinant UMI read abundance (log10)” value was 0.00616. For “CTCCGTACATGGACCGGTTTTCCCGGTAATCCGTATTTGCT (site CACCGTACTAG)”, the “recombinant UMI read abundance (log10)” value was 1.41. With “CTCCGTACATGGACCGGTTTTCCCGGTAATCCGTATTTGCT (site CCCCGTACTAG)” the “recombinant UMI read abundance (log10)” value was 1.28. For “CTCCGTACATGGACCGGTTTTCCCGGTAATCCGTATTTGCT (site CGCCGTACTAG)”, the “recombinant UMI read abundance (log10)” value was 0.00286. In the case of “CTCCGTACATGGACCGGTTTTCCCGGTAATCCGTATTTGCT (site CTCCGTACTAG)”, the “recombinant UMI read abundance (log10)” value is reported as 1.45. For “CTCCTGTCATGGACCGGTTTTCCCGGTAATCCGTATTTGAC (site CTCCTGTCTGT)”, the “recombinant UMI read abundance (log10)” value was 0. In the case of “CTCGCGGCATGGACCGGTTTTCCCGGTAATCCGTATTTGCC (site CTCGCGGCTGG)”, the “recombinant UMI read abundance (log10)” value is reported as 0. For “CTCGCTACATGGACCGGTTTTCCCGGTAATCCGTATTTGCA (site CTCGCTACTTG)”, the “recombinant UMI read abundance (log10)” value was 2.41. For “CTCGCTCCATGGACCGGTTTTCCCGGTAATCCGTATTTGAG (site CTCGCTCCTCT)”, the “recombinant UMI read abundance (log10)” value was 0.0649. With “CTCGTAACATGGACCGGTTTTCCCGGTAATCCGTATTTGAC (site CTAGTATCTGT)” the “recombinant UMI read abundance (log10)” value was 0.0113. With “CTCGTAACATGGACCGGTTTTCCCGGTAATCCGTATTTGAC (site CTCGTAACTGT)” the “recombinant UMI read abundance (log10)” value was 2.56. For “CTCGTATCATGGACCGGTTTTCCCGGTAATCCGTATTTGAC (site CTAGTATCTGT)”, the “recombinant UMI read abundance (log10)” value was 0.00452. With “CTCGTATCATGGACCGGTTTTCCCGGTAATCCGTATTTGAC (site CTCGTATCTGT)” the “recombinant UMI read abundance (log10)” value was 2.6. For “CTCGTATCATGGACCGGTTTTCCCGGTAATCCGTATTTGAC (site CTGGTATCTGT)”, the “recombinant UMI read abundance (log10)” value was 0. With “CTCGTATCATGGACCGGTTTTCCCGGTAATCCGTATTTGAC (site CTTGTATCTGT)” the “recombinant UMI read abundance (log10)” value was 0. In the case of “CTCTAAACATGGACCGGTTTTCCCGGTAATCCGTATTTGCT (site CTCTAAACTAG)”, the “recombinant UMI read abundance (log10)” value is reported as 2.06. With “CTCTAAACATGGACCGGTTTTCCCGGTAATCCGTATTTGCT (site CTCTACACTAG)” the “recombinant UMI read abundance (log10)” value was 0.676. With “CTCTAAACATGGACCGGTTTTCCCGGTAATCCGTATTTGCT (site CTCTAGACTAG)” the “recombinant UMI read abundance (log10)” value was 0.36. With “CTCTAAACATGGACCGGTTTTCCCGGTAATCCGTATTTGCT (site CTCTATACTAG)” the “recombinant UMI read abundance (log10)” value was 0. In the case of “CTCTATACATGGACCGGTTTTCCCGGTAATCCGTATTTGCT (site CTCTAAACTAG)”, the “recombinant UMI read abundance (log10)” value is reported as 0. With “CTCTATACATGGACCGGTTTTCCCGGTAATCCGTATTTGCT (site CTCTACACTAG)” the “recombinant UMI read abundance (log10)” value was 0.592. With “CTCTATACATGGACCGGTTTTCCCGGTAATCCGTATTTGCT (site CTCTAGACTAG)” the “recombinant UMI read abundance (log10)” value was 0. For “CTCTATACATGGACCGGTTTTCCCGGTAATCCGTATTTGCT (site CTCTATACTAG)”, the “recombinant UMI read abundance (log10)” value was 2.08. With “CTCTCTACATGGACCGGTTTTCCCGGTAATCCGTATTTGAG (site CTCACTACTCT)” the “recombinant UMI read abundance (log10)” value was 0.0192. In the case of “CTCTCTACATGGACCGGTTTTCCCGGTAATCCGTATTTGAG (site CTCCCTACTCT)”, the “recombinant UMI read abundance (log10)” value is reported as 0.00919. With “CTCTCTACATGGACCGGTTTTCCCGGTAATCCGTATTTGAG (site CTCGCTACTCT)” the “recombinant UMI read abundance (log10)” value was 0.00461. With “CTCTCTACATGGACCGGTTTTCCCGGTAATCCGTATTTGAG (site CTCTCTACTCT)” the “recombinant UMI read abundance (log10)” value was 0.0107. With “CTCTGTTCATGGACCGGTTTTCCCGGTAATCCGTATTTGCC (site CTCTGTTCTGG)” the “recombinant UMI read abundance (log10)” value was 1.45. For “CTCTTCACATGGACCGGTTTTCCCGGTAATCCGTATTTGGC (site CTCTTCACTGC)”, the “recombinant UMI read abundance (log10)” value was 2.73. For “CTGAAAACATGGACCGGTTTTCCCGGTAATCCGTATTTGCA (site CTGAAAACTTG)”, the “recombinant UMI read abundance (log10)” value was 1.48. For “CTGAAAACATGGACCGGTTTTCCCGGTAATCCGTATTTGCA (site CTGCAAACTTG)”, the “recombinant UMI read abundance (log10)” value was 0. For “CTGAAAACATGGACCGGTTTTCCCGGTAATCCGTATTTGCA (site CTGGAAACTTG)”, the “recombinant UMI read abundance (log10)” value was 0. For “CTGAAAACATGGACCGGTTTTCCCGGTAATCCGTATTTGCA (site CTGTAAACTTG)”, the “recombinant UMI read abundance (log10)” value was 0. For “CTGAATCCATGGACCGGTTTTCCCGGTAATCCGTATTTGTT (site CAGAATCCTAA)”, the “recombinant UMI read abundance (log10)” value was 0.0107. For “CTGAATCCATGGACCGGTTTTCCCGGTAATCCGTATTTGTT (site CCGAATCCTAA)”, the “recombinant UMI read abundance (log10)” value was 0. In the case of “CTGAATCCATGGACCGGTTTTCCCGGTAATCCGTATTTGTT (site CGGAATCCTAA)”, the “recombinant UMI read abundance (log10)” value is reported as 0. For “CTGAATCCATGGACCGGTTTTCCCGGTAATCCGTATTTGTT (site CTGAATCCTAA)”, the “recombinant UMI read abundance (log10)” value was 1.5. With “CTGAATGCATGGACCGGTTTTCCCGGTAATCCGTATTTGTT (site CGGAATCCTAA)” the “recombinant UMI read abundance (log10)” value was 0.00219. For “CTGAATGCATGGACCGGTTTTCCCGGTAATCCGTATTTGTT (site CTGAATGCTAA)”, the “recombinant UMI read abundance (log10)” value was 1.94. For “CTGCATACATGGACCGGTTTTCCCGGTAATCCGTATTTGTA (site CTGCATACTTA)”, the “recombinant UMI read abundance (log10)” value was 1.59. With “CTGCCGACATGGACCGGTTTTCCCGGTAATCCGTATTTGCG (site CTGCCGACTCG)” the “recombinant UMI read abundance (log10)” value was 1.83.
